Here are results for eleven molecules from patent publication US20030113665A1, “Optical data medium containing, in the information layer, a dye as a light-absorbing compound” (priority 2001, published 2003).

Data set [1] can be described thus: Recording/readout test of optical disc with vapour-deposited phthalocyanine information layer. From the text:
Directly on top of the grooved surface the information layer of 40 nm was coated by vacuum vapor deposition method. […] Total thickness of the adhesive layer and the cover layer was set as 100 μm.
The parameters of readout/recording setup was as follows.
Numerical aperture of the objective lens=0.85, two element lens
Readout laser power=0.30 mW
Writing laser power=6.0 mW
Pulse strategy=7 pulses with 50% duty inside one mark
The dye dichloro-silicon-phthalocyanine (SiCl2Pc) was applied for the information layer.

The nature of data set [2]: UV absorption spectra in solution. In kind it is physicochemical. The conditions noted are these: for UV (DMF): λmax: in DMF; for UV (dioxane): λmax: in dioxane; for λmax: in dioxane (Tables 1-3); for λ1/2-λ1/10: on the shortwave slope (Tables 1-3). The source says:
For a, preferably singly recordable, optical data carrier according to the invention which is written and read by light from a blue laser such merocyanine dyes are preferred whose absorption maximum λmax2 is in the range from 420 bis 550 nm, wherein the wavelength λ½ at which the extinction on the shortwave slope of the absorption maximum of the wavelength λmax2 is half the extinction value at λmax2 and the wavelength λ 1/10 at which the extinction on the shortwave slope of the absorption maximum of the wavelength λmax2 is a tenth of the extinction value at λmax2, are preferably in each case no further than 50 nm away from each other.
The absorption spectra are measured for example in solution.
Suitable merocyanines having the required spectral properties are in particular those in which the change in dipole moment Δμ=|μg-μag|, i.e. the positive difference between the dipole moments in the ground state and in the first excited state, is as small as possible, preferably <5 D, and particularly preferably <2 D. One method of determining such a change in dipole moment Δμ is described for example in F. Würthner et al., Angew. Chem. 1997, 109, 2933 and in the literature cited therein. Low solvatochromism (dioxane/DMF) is also a suitable criterion for selection. Merocyanines are preferred whose solvatochromism Δλ=|λDMF-λdioxane|, i.e. the positive difference between the absorption wavelengths in the solvents dimethylformamide and dioxane is <20 nm, particularly preferably <10 nm and very particularly preferably <5 nm.

The nature of data set [3]: Solubility in coating solvent. The conditions noted are these: in TFP (2,2,3,3-tetrafluoropropanol). In kind it is physicochemical.
Data set [4] can be described thus: UV absorption spectra in solution. In kind it is physicochemical.
[5] abbreviates: molar extinction coefficient at absorption maximum.
Where [6] appears, read: = |λDMF − λdioxane| (Tables 1-3).

Like-named read-outs stand apart in the source and are kept apart here.

`[Cl][Al]1[n]2c3c4ccccc4c2/N=C2N=C(/N=c4/c5ccccc5/c([n]41)=N/C1=NC(=N\3)/c3ccccc31)c1ccccc1\2` [Example 1, monochloro-aluminium-phthalocyanine]: the readout stability entry in data set [1] is reported as “surprisingly good”.
`CCCCN1C(=O)C(C#N)=C(C)/C(=C\C=C2/N(C)c3ccccc3C2(C)C)C1=O` [Example 24]: in data set [2], the “UV (DMF): λmax” value was 522 nm and the “UV (dioxane): λmax” value is 520 nm. The molecule further had a Solubility in data set [3] of over 2%. Further, the “λ½-λ1/10 (longwave slope)” value in data set [4] is 12 nm.
Turning to `CCCN1C(=O)C(C#N)=C(C)/C(=C\C=C\N(C)c2ccc(OC)cc2)C1=O` [Example 25], in data set [2], the “UV (DMF): λmax” value amounted to 477 nm, the “UV (dioxane): λmax” value stood at 482 nm and the “λ½-λ1/10 (shortwave slope)” value came out at 33 nm. This molecule also yielded a ε in data set [2] (setting [5]) of 73013 L/mol/cm. The same molecule had a Δλ in data set [2] (solvatochromism |λDMF-λdioxane|) of 5 nm. This molecule also gave a Solubility in data set [3] of over 2%.
For the molecule `CC1=C([n+]2ccccc2)C(=O)NC(=O)/C1=C/C=C1\N(C)c2ccccc2C1(C)C` [Example 26], the “UV (methanol): λmax” value in data set [2] (in methanol) is 513 nm. In addition, the ε in data set [2] (setting [5]) came out at 86510 L/mol/cm. For the same molecule, in data set [2], the “λ½-λ1/10 (shortwave slope)” value came to 38 nm.
With `CCCCCCCCCCCCN1C(=O)/C(=C/c2ccc(N(C)C)o2)C(=O)N(C)C1=O` [Example 27], in data set [2], the “UV (dioxane): λmax” value was 483 nm and the “λ½-λ1/10 (shortwave slope)” value was 32 nm.
For `Cc1cnc(N(C)C)s1` [Example 28], in data set [2] (setting [6]), the Δλ came out at 16 nm. For the same molecule, the ε in data set [2] (Tables 1-3) came to 40990 L/mol/cm. Besides, in data set [2], the λmax was determined as 470 nm and the λ1/2-λ1/10 is 32^3) nm.
On to `C=C1N(C)c2ccccc2C1(C)C` [Example 56], for which the Δλ in data set [2] (setting [6]) is reported as 5 nm. In addition, the ε in data set [2] (Tables 1-3) turned out to be 46470 L/mol/cm. Besides, in data set [2], the λmax turned out to be 499 nm and the λ1/2-λ1/10 is on record as 36^3) nm.
On the same counts, the results for `C=C1N(C)c2ccc(C)cc2C1(C)C` [Example 63] are 6 nm, 41530 L/mol/cm, 503 nm and 36^3) nm.
For `CN1/C(=C\C=C(\C#N)c2nc3ccccc3s2)C(C)(C)c2ccccc21` [Example 76], in data set [2], the λmax was 462 nm and the λ1/2-λ1/10 is given as 34^3) nm.
On to `C=C1N(CCCCN2C(=C)C(C)(C)c3ccccc32)c2ccccc2C1(C)C` [Example 77], for which, in data set [2], the λmax turned out to be 500 nm.
Take “dichloro-silicon-phthalocyanine [Example 2]”: the readout stability entry in data set [1] (SiO2 buffer layer and PSA layer, 100 μm cover) is “very high”.
